Source: patent US8952024B2, “Herbicidal pyrimidone derivatives” (E I du Pont de Nemours and Company, priority 2009, dated 2015)

Experiments:
Type in all cases: in vivo
soybean (Glycine max) = test: Test B pre-/postemergence plant response; details: for Soybean plant response rating (0 to 100 scale): 62 g ai/ha, 0 is no effect, 13 to 15 days
Method in brief: (§1)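 Visually scored on a 0 to 100 scale after 13 to 15 days in greenhouse versus controls. Treatments were preemergence on seeded loam/sand soil and postemergence on 1- to 4-leaf plants.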

[1] = tested on: cocklebur (Xanthium strumarium); test: Test B pre-/postemergence plant response; details: for Cocklebur plant response rating (0 to 100 scale): 62 g ai/ha, 0 is no effect, 13 to 15 days
Method in brief: as §1

[2] = tested on: wheat (Triticum aestivum); test: Test B pre-/postemergence plant response; details: for Wheat plant response rating (0 to 100 scale): 62 g ai/ha, 0 is no effect, 13 to 15 days
Method in brief: as §1

[3] = tested on: morningglory (Ipomoea coccinea); test: Test B pre-/postemergence plant response; details: for Morningglory plant response rating (0 to 100 scale): 62 g ai/ha, 0 is no effect, 13 to 15 days
Method in brief: as §1

corn (Zea mays) = test: Test A pre-/postemergence plant response
Method in brief: (§2)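 Approximately ten days after concurrent pre- and postemergence spraying in a greenhouse, plants were compared with untreated controls and rated visually for injury, 0 = no effect to 100 = complete control. Preemergence spray was directed onto loam/sand soil; postemergence targeted 1–2 leaf seedlings.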

[4] = tested on: velvetleaf (Abutilon theophrasti); test: Test A pre-/postemergence plant response
Method in brief: as §2

[5] = tested on: barnyardgrass (Echinochloa crus-galli); test: Test A pre-/postemergence plant response
Method in brief: as §2

[6] = tested on: wheat (Triticum aestivum); test: Test A pre-/postemergence plant response
Method in brief: as §2

[7] = tested on: morningglory (Ipomoea spp.); test: Test A pre-/postemergence plant response
Method in brief: as §2

[8] = tested on: pigweed (Amaranthus retroflexus); test: Test A pre-/postemergence plant response
Method in brief: as §2

[9] = tested on: giant foxtail (Setaria faberii); test: Test A pre-/postemergence plant response
Method in brief: as §2

[10] = tested on: large crabgrass (Digitaria sanguinalis); test: Test A pre-/postemergence plant response
Method in brief: as §2

[11] = 31 g ai/ha, postemergence, scale 0 to 100, 0 is no effect, 100 is complete control
[12] = postemergence, 100 is complete control
[13] = Postemergence, 250 g ai/ha, scale 0 to 100 (0 no effect, 100 complete control)
[14] = Postemergence, 125 g ai/ha, visual rating after 13 to 15 days, scale 0 (no effect) to 100 (complete control)
[15] = Postemergence, 125 g ai/ha, 0 to 100 scale where 0 is no effect and 100 is complete control
[16] = Postemergence, 500 g ai/ha, 0 to 100 scale, 0 = no effect, 100 = complete control, approx. ten days
[17] = Preemergence, 125 g ai/ha, 0 to 100 scale, 0 = no effect, 100 = complete control
[18] = Preemergence, 500 g ai/ha, visual injury, 0 to 100 scale (0 no effect, 100 complete control), approx. ten days

CCCn1c(-c2ccsc2)ncc(C(=O)C2=C(O)CCCC2=O)c1=O [Compound 93]
10: Plant response rating, Corn (corn (Zea mays); [15])
95: Plant response rating, Cocklebur [1, 14]
70: Plant response rating, Cocklebur [1, 11] | Plant response rating, Morningglory [3, 11]
55: Plant response rating, Soybean (soybean (Glycine max); [11])
5: Plant response rating, Wheat [2, 13]
98: Plant response rating, Soybean (soybean (Glycine max); [13]) | Plant response rating, Cocklebur [1, 13]
100: Plant response rating, Morningglory [3, 13] | Plant response rating, Velvetleaf [4, 15] | Plant response rating, Velvetleaf [4, 16] | Plant response rating, Velvetleaf [4, 18] | Plant response rating, Barnyardgrass [5, 18] | Plant response rating, Morningglory [7, 15] | Plant response rating, Morningglory [7, 16] | Plant response rating, Pigweed [8, 15] | Plant response rating, Pigweed [8, 16] | Plant response rating, Pigweed [8, 17] | Plant response rating, Pigweed [8, 18] | Plant response rating, Crabgrass, Large [10, 16] | Plant response rating, Crabgrass, Large [10, 18]
80: Soybean plant response rating (0 to 100 scale) (soybean (Glycine max); [12]) | Morningglory plant response rating (0 to 100 scale) [3, 12] | Plant response rating, Barnyardgrass [5, 17] | Plant response rating, Morningglory [7, 17] | Plant response rating, Foxtail, Giant [9, 15] | Plant response rating, Foxtail, Giant [9, 18]
0: Plant response rating, Wheat [2, 11] | Wheat plant response rating (0 to 100 scale) [2, 12] | Plant response rating, Corn (corn (Zea mays); [17]) | Plant response rating, Corn (corn (Zea mays); [18]) | Plant response rating, Wheat [6, 15] | Plant response rating, Wheat [6, 16] | Plant response rating, Wheat [6, 17] | Plant response rating, Wheat [6, 18]
30: Plant response rating, Corn (corn (Zea mays); [16])
60: Plant response rating, Foxtail, Giant [9, 17]
90: Cocklebur plant response rating (0 to 100 scale) [1, 12] | Plant response rating, Velvetleaf [4, 17] | Plant response rating, Barnyardgrass [5, 15] | Plant response rating, Barnyardgrass [5, 16] | Plant response rating, Morningglory [7, 18] | Plant response rating, Foxtail, Giant [9, 16] | Plant response rating, Crabgrass, Large [10, 15] | Plant response rating, Crabgrass, Large [10, 17]

CCCCCCn1c(-c2ccccc2)ncc(C(=O)C2=C(O)CCCC2=O)c1=O [Compound 94]
100: Plant response rating, Morningglory [3, 13] | Plant response rating, Velvetleaf [4, 15] | Plant response rating, Velvetleaf [4, 16] | Plant response rating, Morningglory [7, 15] | Plant response rating, Morningglory [7, 16] | Plant response rating, Pigweed [8, 15] | Plant response rating, Pigweed [8, 16] | Plant response rating, Pigweed [8, 18]
60: Plant response rating, Cocklebur [1, 14]
0: Plant response rating, Wheat [2, 11] | Wheat plant response rating (0 to 100 scale) [2, 12] | Plant response rating, Corn (corn (Zea mays); [15]) | Plant response rating, Corn (corn (Zea mays); [17]) | Plant response rating, Corn (corn (Zea mays); [18]) | Plant response rating, Barnyardgrass [5, 17] | Plant response rating, Wheat [6, 15] | Plant response rating, Wheat [6, 16] | Plant response rating, Wheat [6, 17] | Plant response rating, Wheat [6, 18] | Plant response rating, Foxtail, Giant [9, 17]
10: Plant response rating, Corn (corn (Zea mays); [16]) | Plant response rating, Morningglory [7, 17]
30: Plant response rating, Barnyardgrass [5, 18] | Plant response rating, Foxtail, Giant [9, 15] | Plant response rating, Crabgrass, Large [10, 17]
5: Plant response rating, Wheat [2, 13]
70: Plant response rating, Velvetleaf [4, 18] | Plant response rating, Pigweed [8, 17]
65: Plant response rating, Soybean (soybean (Glycine max); [11])
40: Plant response rating, Velvetleaf [4, 17] | Plant response rating, Morningglory [7, 18] | Plant response rating, Foxtail, Giant [9, 18]
55: Plant response rating, Morningglory [3, 11]
75: Morningglory plant response rating (0 to 100 scale) [3, 12]
95: Plant response rating, Soybean (soybean (Glycine max); [13])
90: Plant response rating, Cocklebur [1, 13] | Plant response rating, Barnyardgrass [5, 15] | Plant response rating, Barnyardgrass [5, 16] | Plant response rating, Crabgrass, Large [10, 16] | Plant response rating, Crabgrass, Large [10, 18]
45: Plant response rating, Cocklebur [1, 11] | Cocklebur plant response rating (0 to 100 scale) [1, 12]
80: Soybean plant response rating (0 to 100 scale) (soybean (Glycine max); [12]) | Plant response rating, Foxtail, Giant [9, 16] | Plant response rating, Crabgrass, Large [10, 15]

CCOCCn1c(-c2ccccc2)ncc(C(=O)C2=C(O)CCCC2=O)c1=O [Compound 96]
10: Plant response rating, Corn (corn (Zea mays); [18])
95: Cocklebur plant response rating (0 to 100 scale) [1, 12] | Morningglory plant response rating (0 to 100 scale) [3, 12]
90: Plant response rating, Barnyardgrass [5, 15] | Plant response rating, Barnyardgrass [5, 16] | Plant response rating, Barnyardgrass [5, 17] | Plant response rating, Foxtail, Giant [9, 16] | Plant response rating, Crabgrass, Large [10, 15]
65: Plant response rating, Soybean (soybean (Glycine max); [11]) | Plant response rating, Morningglory [3, 11]
15: Plant response rating, Wheat [2, 13]
0: Plant response rating, Wheat [2, 11] | Plant response rating, Corn (corn (Zea mays); [15]) | Plant response rating, Corn (corn (Zea mays); [17]) | Plant response rating, Wheat [6, 15] | Plant response rating, Wheat [6, 17] | Plant response rating, Wheat [6, 18]
70: Plant response rating, Foxtail, Giant [9, 15]
5: Wheat plant response rating (0 to 100 scale) [2, 12]
80: Plant response rating, Morningglory [7, 17] | Plant response rating, Morningglory [7, 18] | Plant response rating, Foxtail, Giant [9, 18]
98: Plant response rating, Soybean (soybean (Glycine max); [13]) | Plant response rating, Cocklebur [1, 14]
75: Soybean plant response rating (0 to 100 scale) (soybean (Glycine max); [12]) | Plant response rating, Cocklebur [1, 11]
100: Plant response rating, Cocklebur [1, 13] | Plant response rating, Morningglory [3, 13] | Plant response rating, Velvetleaf [4, 15] | Plant response rating, Velvetleaf [4, 16] | Plant response rating, Velvetleaf [4, 17] | Plant response rating, Velvetleaf [4, 18] | Plant response rating, Barnyardgrass [5, 18] | Plant response rating, Morningglory [7, 15] | Plant response rating, Morningglory [7, 16] | Plant response rating, Pigweed [8, 15] | Plant response rating, Pigweed [8, 16] | Plant response rating, Pigweed [8, 17] | Plant response rating, Pigweed [8, 18] | Plant response rating, Crabgrass, Large [10, 16] | Plant response rating, Crabgrass, Large [10, 17] | Plant response rating, Crabgrass, Large [10, 18]
20: Plant response rating, Corn (corn (Zea mays); [16]) | Plant response rating, Wheat [6, 16]
50: Plant response rating, Foxtail, Giant [9, 17]
